# Reference: patent US4702863A, “Indoaniline and indophenol compounds, a process for their preparation, dyeing compositions containing them and a hair-dyeing process” (L'Oreal, priority 1983, dated 1987)
# How the values were obtained:
# Salmonella Typhimurium [1] = experiment: Ames test on Salmonella Typhimurium, with or without an S9 mix activated with Arochlor; assay type: cell-based; settings: strains TA 100, TA 98 and TA 1538; with or without an S9 mix (Arochlor activation)
# From the text: Compounds of formula (I), in hair-dyeing, are substantially innocuous.
# Salmonella Typhimurium [2] = settings: Selects-Proton Magnetic Resonance, page 1, volume 18, 1981, number 95: 75096 f; cited from earlier work
Compound,mutagenicity in the Ames test (Salmonella Typhimurium [1]),mutagenic action disclosed in Chemical Abstracts (Salmonella Typhimurium [2])
"COC1=CC(=Nc2ccc(N)cc2)C(N)=CC1=O [[(4'-amino)phenyl]-2-amino-5-methoxy-1,4-benzoquinoneimine]",highly mutagenic,–
"COC1=CC(=Nc2ccc(N)c(C)c2)C(N)=CC1=O [[(4'-amino-3'-methyl)phenyl]-2-amino-5-methoxy-1,4-benzoquinoneimine]",highly mutagenic,highly mutagenic
